Reference: US10653676B2 (Dana-Farber Cancer Institute, Inc., priority 2010, dated 2020)

What was measured:
USP5 = target: T1, USP5 (Homo sapiens, UniProt P45974); assay: ubiquitin-AMC assay with USP5; format: biochemical
T1 construct: purchased Boston Biochem
T1 sequence (P45974 1-858): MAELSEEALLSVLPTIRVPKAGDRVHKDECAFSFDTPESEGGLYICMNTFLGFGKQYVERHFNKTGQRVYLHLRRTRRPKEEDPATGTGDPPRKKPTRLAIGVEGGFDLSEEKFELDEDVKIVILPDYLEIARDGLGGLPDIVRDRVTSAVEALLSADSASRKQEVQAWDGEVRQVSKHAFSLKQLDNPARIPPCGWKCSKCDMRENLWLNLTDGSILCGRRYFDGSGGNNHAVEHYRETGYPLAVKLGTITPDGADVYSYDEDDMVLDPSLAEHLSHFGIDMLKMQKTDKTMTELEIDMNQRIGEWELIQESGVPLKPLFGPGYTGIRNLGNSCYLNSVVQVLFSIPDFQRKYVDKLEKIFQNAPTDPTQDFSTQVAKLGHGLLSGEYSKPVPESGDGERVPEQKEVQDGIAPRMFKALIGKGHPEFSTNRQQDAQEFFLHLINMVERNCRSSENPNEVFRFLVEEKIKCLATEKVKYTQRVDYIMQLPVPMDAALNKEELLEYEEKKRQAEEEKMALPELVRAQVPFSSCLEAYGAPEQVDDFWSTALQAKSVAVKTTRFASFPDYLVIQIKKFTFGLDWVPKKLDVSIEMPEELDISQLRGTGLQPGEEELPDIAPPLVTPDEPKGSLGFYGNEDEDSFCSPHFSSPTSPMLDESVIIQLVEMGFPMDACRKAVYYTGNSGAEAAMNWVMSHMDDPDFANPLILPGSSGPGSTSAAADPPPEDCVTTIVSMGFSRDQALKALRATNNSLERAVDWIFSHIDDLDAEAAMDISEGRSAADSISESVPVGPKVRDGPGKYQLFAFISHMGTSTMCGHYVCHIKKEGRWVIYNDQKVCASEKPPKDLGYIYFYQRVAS
Procedure: (§1) FIG. 6 is a composite figure showing that C527 is a pan-deubiqutinating enzyme inhibitor […]. Ubiquitin-AMC assay was performed using purified (FIG. 6A) USP12/UAF1/WDR20 (FIG. 6B) USP5 and (FIG. 6C) UCH-L1. Enzymes were incubated with DMSO or C527 at indicated concentrations for 3 h, followed by the addition of Ub-AMC at 0.5 μM final concentration. The fluorescence at […] was measured to indicate the enzymatic activity. FIG. 6D is a summary showing the IC50 of C527 against the indicated enzymes.
(§2) The in vitro enzymatic assays were performed using purified proteins from Sf9 cells as described previously (Cohn et al.). The assays using ubiquitin-AMC (Ub-7-amido-4-methylcoumarin; Boston Biochem) as substrate was carried out in a reaction buffer containing 20 mM HEPES-KOH (pH 7.8), 20 mM NaCl, 0.1 mg/ml ovalbumin, 0.5 mM EDTA and 10 mM dithiothreitol. The fluorescence was measured by FluoStar Galaxy Fluorometer (BMG Labtech). For the Ub-vinylsulfone (VS) assay, the proteins were incubated with Ub-VS at 0.5 μM final concentration for 1 h at 30° C., followed by the immunoblotting analysis.
(§3) To examine the specificity of C527 in USP1/UAF1 inhibition, its ability to inhibit other DUB enzymes in vitro was examined. […] Moreover, the active complex of USP12 contains an additional WD40 subunit (WDR20). […]

UCH-L1 = target: T2, UCH-L1 (Homo sapiens, UniProt P09936); assay: ubiquitin-AMC assay with UCH-L1; format: biochemical; conditions: in vitro
T2 sequence (P09936 1-223): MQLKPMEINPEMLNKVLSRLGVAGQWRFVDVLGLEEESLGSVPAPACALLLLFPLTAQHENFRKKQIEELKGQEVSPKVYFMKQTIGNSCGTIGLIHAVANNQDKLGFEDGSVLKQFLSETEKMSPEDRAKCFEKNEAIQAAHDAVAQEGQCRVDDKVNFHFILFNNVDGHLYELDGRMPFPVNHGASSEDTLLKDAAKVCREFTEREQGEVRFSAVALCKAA
Procedure: as §1, §2, §3

UCH-L3 = target: T3, UCH-L3 (Homo sapiens, UniProt P15374); assay: deubiquitinating enzyme assay with UCH-L3; format: biochemical; conditions: in vitro
T3 sequence (P15374 1-230): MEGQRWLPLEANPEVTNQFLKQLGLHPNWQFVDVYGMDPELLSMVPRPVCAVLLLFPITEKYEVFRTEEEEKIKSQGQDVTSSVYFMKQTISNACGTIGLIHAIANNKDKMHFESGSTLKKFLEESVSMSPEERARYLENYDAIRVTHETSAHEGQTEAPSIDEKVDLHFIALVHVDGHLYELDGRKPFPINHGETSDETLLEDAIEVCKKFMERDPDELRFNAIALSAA
Procedure: as §2
To examine the specificity of C527 in USP1/UAF1 inhibition, its ability to inhibit other DUB enzymes in vitro was examined. […] Moreover, the active complex of USP12 contains an additional WD40 subunit (WDR20). […] UCH-L1 and UCH-L3 are members of a different subclass of deubiquitinating enzymes, referred to as the ubiquitin-carboxy terminal hydrolases (Mermerian A H, Case A, Stein R L, Cuny G D. Structure-activity relationship, kinetic mechanism, and selectivity for a new class of ubiquitin C-terminal hydrolase-L1 (UCH-L1) inhibitors. Bioorg Med Chem Lett. 2007; 17:3729-3732). […] Taken together, C527 is a pan-deubiquitinating enzyme inhibitor in vitro, though it has some specificity for the USP subfamily of DUBs, compared to the UCH subfamily.

[1] = system: HeLa cells, integrated with the NHEJ reporter; assay: NHEJ reporter assay; format: cell-based, human; conditions: same condition as HR assay; FIG. 8B
Procedure: FIG. 8 is a composite figure showing that C527 inhibits homologous recombination repair. […] U2OS-DRGFP cells were transfected with I-SCE-I and then exposed to C527 at the indicated concentration for 24 h. Cells were then subjected to flow cytometry analysis. The percentage of GFP positive cells was normalized by solvent vehicle treated group. […] HeLa cells, integrated with the NHEJ reporter, were treated with C527 and analyzed as described in (FIG. 8A). […] HeLa cells were pre-treated with DMSO or C527 at the indicated concentration and then exposed to camptothecin (CPT) for 1 hr. RAD51 foci were detected using immunofluorescence.
Disruption of FANCD2 monoubiquitination or of USP1 activity (Oestergaard V H, Langevin F, Kuiken H J, et al. Deubiquitination of FANCD2 is required for DNA crosslink repair. Mol Cell. 2007; 28:798-809; Kim J M, Parmar K, Huang M, et al. Inactivation of murine Usp1 results in genomic instability and a Fanconi anemia phenotype. Dev Cell. 2009; 16:314-320) results in decreased HR. A gene conversion assay was used to examine the effect of C527 on cellular HR activity (FIG. 8A).

O=C1c2ccccc2C(=O)c2oc(-c3ccc(F)cc3)nc21 [Formula IV (527)]
IC50 compared with USP1/UAF1 (USP5; FIG. 6D): slightly higher
DUB activity of the USP5 enzyme (USP5; in vitro, FIG. 6B): inhibited
inhibitory effect on UCH-L1 (UCH-L1): considerably less inhibitory effect
inhibitory effect on UCH-L3 (UCH-L3): considerably less inhibitory effect
non-homologous end joining (NHEJ) activity [1]: did not inhibit
